Measured values: PubChem BioAssay (NCI)
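All cell lines were grown in 96-well plates and treated with compound for 48 hours. At the TGI there is no net growth.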

Key:
Assay in all cases: NCI-60 cell line screen, 48 h
ACHN renal = test system: ACHN renal
OVCAR-3 ovarian = test system: OVCAR-3 ovarian
OVCAR-4 ovarian = test system: OVCAR-4 ovarian
M19-MEL melanoma = test system: M19-MEL melanoma
A498 renal = test system: A498 renal
EKVX NSCLC = test system: EKVX NSCLC
HCT-15 colon = test system: HCT-15 colon
SNB-78 CNS = test system: SNB-78 CNS
786-0 renal = test system: 786-0 renal
UO-31 renal = test system: UO-31 renal
SK-MEL-5 melanoma = test system: SK-MEL-5 melanoma
HOP-62 NSCLC = test system: HOP-62 NSCLC
NCI-H226 lung = test system: NCI-H226 lung
OVCAR-5 ovarian = test system: OVCAR-5 ovarian
SR leukemia = test system: SR leukemia
M14 melanoma = test system: M14 melanoma
KM20L2 colon = test system: KM20L2 colon
SF-268 CNS = test system: SF-268 CNS
K-562 leukemia = test system: K-562 leukemia
UACC-257 melanoma = test system: UACC-257 melanoma
HCT-116 colon = test system: HCT-116 colon
SNB-75 CNS = test system: SNB-75 CNS
SK-OV-3 ovarian = test system: SK-OV-3 ovarian
DMS 114 small cell lung = test system: DMS 114 small cell lung
MOLT-4 leukemia = test system: MOLT-4 leukemia
SN12C renal = test system: SN12C renal
SK-MEL-28 melanoma = test system: SK-MEL-28 melanoma
LOX IMVI melanoma = test system: LOX IMVI melanoma
A549 NSCLC = test system: A549 NSCLC
DLD-1 colon = test system: DLD-1 colon
HOP-92 NSCLC = test system: HOP-92 NSCLC
UACC-62 melanoma = test system: UACC-62 melanoma
CCRF-CEM leukemia = test system: CCRF-CEM leukemia
NCI-H23 lung = test system: NCI-H23 lung
MALME-3M melanoma = test system: MALME-3M melanoma
HOP-18 NSCLC = test system: HOP-18 NSCLC
SNB-19 CNS = test system: SNB-19 CNS
NCI-H460 lung = test system: NCI-H460 lung
TK-10 renal = test system: TK-10 renal
COLO 205 colon = test system: COLO 205 colon
SK-MEL-2 melanoma = test system: SK-MEL-2 melanoma
SF-539 CNS = test system: SF-539 CNS
NCI-H522 lung = test system: NCI-H522 lung
HT29 colon = test system: HT29 colon
HCC-2998 colon = test system: HCC-2998 colon
HL-60(TB) leukemia = test system: HL-60(TB) leukemia
RXF 393 renal = test system: RXF 393 renal
U251 CNS = test system: U251 CNS
RXF-631 renal = test system: RXF-631 renal
OVCAR-8 ovarian = test system: OVCAR-8 ovarian
RPMI-8226 leukemia = test system: RPMI-8226 leukemia
LXFL 529 NSCLC = test system: LXFL 529 NSCLC
IGROV1 ovarian = test system: IGROV1 ovarian
KM12 colon = test system: KM12 colon
DMS 273 small cell lung = test system: DMS 273 small cell lung
CAKI-1 renal = test system: CAKI-1 renal
SF-295 CNS = test system: SF-295 CNS
SW-620 colon = test system: SW-620 colon

CCOC(OC1=C(C#N)CCC1)C(C)[Se]c1ccccc1 (configuration not stated)
TGI (ACHN renal): 96.2 µM
TGI (OVCAR-3 ovarian): 42.5 µM
TGI (OVCAR-4 ovarian): 30.5 µM
TGI (M19-MEL melanoma): 30.9 µM
TGI (A498 renal): > 100 µM
TGI (EKVX NSCLC): 82.6 µM
TGI (HCT-15 colon): 35.2 µM
TGI (SNB-78 CNS): > 100 µM
TGI (786-0 renal): 27.8 µM
TGI (UO-31 renal): 67.4 µM
TGI (SK-MEL-5 melanoma): 34 µM
TGI (HOP-62 NSCLC): > 100 µM
TGI (NCI-H226 lung): 51.7 µM
TGI (OVCAR-5 ovarian): > 100 µM
TGI (SR leukemia): 34.8 µM
TGI (M14 melanoma): 33.4 µM
TGI (KM20L2 colon): > 100 µM
TGI (SF-268 CNS): 46.6 µM
TGI (K-562 leukemia): > 100 µM
TGI (UACC-257 melanoma): > 100 µM
TGI (HCT-116 colon): 42.4 µM
TGI (SNB-75 CNS): 77.9 µM
TGI (SK-OV-3 ovarian): > 100 µM
TGI (DMS 114 small cell lung): 14.2 µM
TGI (MOLT-4 leukemia): 43.7 µM
TGI (SN12C renal): 35.8 µM
TGI (SK-MEL-28 melanoma): 96.9 µM
TGI (LOX IMVI melanoma): 22.9 µM
TGI (A549 NSCLC): > 100 µM
TGI (DLD-1 colon): 87.6 µM
TGI (HOP-92 NSCLC): 49.3 µM
TGI (UACC-62 melanoma): 43.9 µM
TGI (CCRF-CEM leukemia): > 100 µM
TGI (NCI-H23 lung): 26.6 µM
TGI (MALME-3M melanoma): 51.9 µM
TGI (HOP-18 NSCLC): 55.3 µM
TGI (SNB-19 CNS): > 100 µM
TGI (NCI-H460 lung): > 100 µM
TGI (TK-10 renal): > 100 µM
TGI (COLO 205 colon): > 100 µM
TGI (SK-MEL-2 melanoma): > 100 µM
TGI (SF-539 CNS): 41 µM
TGI (NCI-H522 lung): 26.7 µM
TGI (HT29 colon): > 100 µM
TGI (HCC-2998 colon): > 100 µM
TGI (HL-60(TB) leukemia): 73.8 µM
TGI (RXF 393 renal): 34.7 µM
TGI (U251 CNS): 21.5 µM
TGI (RXF-631 renal): 26.3 µM
TGI (OVCAR-8 ovarian): 35.9 µM
TGI (RPMI-8226 leukemia): 53.1 µM
TGI (LXFL 529 NSCLC): 46 µM
TGI (IGROV1 ovarian): 68.8 µM
TGI (KM12 colon): > 100 µM
TGI (DMS 273 small cell lung): 29.7 µM
TGI (CAKI-1 renal): > 100 µM
TGI (SF-295 CNS): 71.6 µM

Cn1cnc([N+](=O)[O-])c1Sc1nc2ccccc2s1
TGI (ACHN renal): 28.8 µM
TGI (OVCAR-3 ovarian): 14.5 µM
TGI (OVCAR-4 ovarian): 13.1 µM
TGI (M19-MEL melanoma): 24.3 µM
TGI (EKVX NSCLC): 17.8 µM
TGI (HCT-15 colon): 14.6 µM
TGI (SNB-78 CNS): 33 µM
TGI (786-0 renal): 24.7 µM
TGI (UO-31 renal): 21.5 µM
TGI (SK-MEL-5 melanoma): 27.1 µM
TGI (HOP-62 NSCLC): 86.1 µM
TGI (NCI-H226 lung): 22.1 µM
TGI (OVCAR-5 ovarian): 27.9 µM
TGI (SR leukemia): 13.2 µM
TGI (M14 melanoma): 29 µM
TGI (KM20L2 colon): 23.5 µM
TGI (SF-268 CNS): 20.7 µM
TGI (HCT-116 colon): 18.7 µM
TGI (SNB-75 CNS): 29.3 µM
TGI (SK-OV-3 ovarian): 29.5 µM
TGI (DMS 114 small cell lung): 14.9 µM
TGI (MOLT-4 leukemia): 4.91 µM
TGI (SW-620 colon): 15.1 µM
TGI (SN12C renal): 17.6 µM
TGI (SK-MEL-28 melanoma): 21.1 µM
TGI (LOX IMVI melanoma): 31 µM
TGI (A549 NSCLC): 22.8 µM
TGI (DLD-1 colon): 18.1 µM
TGI (HOP-92 NSCLC): 14.3 µM
TGI (UACC-62 melanoma): 25.7 µM
TGI (NCI-H23 lung): 23.9 µM
TGI (MALME-3M melanoma): 13.2 µM
TGI (HOP-18 NSCLC): 0.902 µM
TGI (SNB-19 CNS): 29.4 µM
TGI (NCI-H460 lung): 24.3 µM
TGI (COLO 205 colon): 14.5 µM
TGI (SF-539 CNS): 25.1 µM
TGI (HT29 colon): 28.5 µM
TGI (HCC-2998 colon): 22 µM
TGI (RXF 393 renal): 8.22 µM
TGI (U251 CNS): 24.4 µM
TGI (RXF-631 renal): 16.9 µM
TGI (OVCAR-8 ovarian): 17.6 µM
TGI (RPMI-8226 leukemia): 43.1 µM
TGI (LXFL 529 NSCLC): 24.7 µM
TGI (IGROV1 ovarian): 25.2 µM
TGI (KM12 colon): 29.3 µM
TGI (DMS 273 small cell lung): 2.71 µM
TGI (CAKI-1 renal): 6.9 µM
TGI (SF-295 CNS): 44.6 µM
